Measurements published in BindingDB's records for patent US20250042903 (H. Lee Moffitt Cancer Center and Research Institute, 2025).
pIC50: −log10 of the molar value.

Target: Cyclin-dependent kinase 12 (Homo sapiens, UniProt Q9NYV4)
Assay: Not found
From the text: Not found

Cyclin-dependent kinase 12, sequence (Q9NYV4 whole entry): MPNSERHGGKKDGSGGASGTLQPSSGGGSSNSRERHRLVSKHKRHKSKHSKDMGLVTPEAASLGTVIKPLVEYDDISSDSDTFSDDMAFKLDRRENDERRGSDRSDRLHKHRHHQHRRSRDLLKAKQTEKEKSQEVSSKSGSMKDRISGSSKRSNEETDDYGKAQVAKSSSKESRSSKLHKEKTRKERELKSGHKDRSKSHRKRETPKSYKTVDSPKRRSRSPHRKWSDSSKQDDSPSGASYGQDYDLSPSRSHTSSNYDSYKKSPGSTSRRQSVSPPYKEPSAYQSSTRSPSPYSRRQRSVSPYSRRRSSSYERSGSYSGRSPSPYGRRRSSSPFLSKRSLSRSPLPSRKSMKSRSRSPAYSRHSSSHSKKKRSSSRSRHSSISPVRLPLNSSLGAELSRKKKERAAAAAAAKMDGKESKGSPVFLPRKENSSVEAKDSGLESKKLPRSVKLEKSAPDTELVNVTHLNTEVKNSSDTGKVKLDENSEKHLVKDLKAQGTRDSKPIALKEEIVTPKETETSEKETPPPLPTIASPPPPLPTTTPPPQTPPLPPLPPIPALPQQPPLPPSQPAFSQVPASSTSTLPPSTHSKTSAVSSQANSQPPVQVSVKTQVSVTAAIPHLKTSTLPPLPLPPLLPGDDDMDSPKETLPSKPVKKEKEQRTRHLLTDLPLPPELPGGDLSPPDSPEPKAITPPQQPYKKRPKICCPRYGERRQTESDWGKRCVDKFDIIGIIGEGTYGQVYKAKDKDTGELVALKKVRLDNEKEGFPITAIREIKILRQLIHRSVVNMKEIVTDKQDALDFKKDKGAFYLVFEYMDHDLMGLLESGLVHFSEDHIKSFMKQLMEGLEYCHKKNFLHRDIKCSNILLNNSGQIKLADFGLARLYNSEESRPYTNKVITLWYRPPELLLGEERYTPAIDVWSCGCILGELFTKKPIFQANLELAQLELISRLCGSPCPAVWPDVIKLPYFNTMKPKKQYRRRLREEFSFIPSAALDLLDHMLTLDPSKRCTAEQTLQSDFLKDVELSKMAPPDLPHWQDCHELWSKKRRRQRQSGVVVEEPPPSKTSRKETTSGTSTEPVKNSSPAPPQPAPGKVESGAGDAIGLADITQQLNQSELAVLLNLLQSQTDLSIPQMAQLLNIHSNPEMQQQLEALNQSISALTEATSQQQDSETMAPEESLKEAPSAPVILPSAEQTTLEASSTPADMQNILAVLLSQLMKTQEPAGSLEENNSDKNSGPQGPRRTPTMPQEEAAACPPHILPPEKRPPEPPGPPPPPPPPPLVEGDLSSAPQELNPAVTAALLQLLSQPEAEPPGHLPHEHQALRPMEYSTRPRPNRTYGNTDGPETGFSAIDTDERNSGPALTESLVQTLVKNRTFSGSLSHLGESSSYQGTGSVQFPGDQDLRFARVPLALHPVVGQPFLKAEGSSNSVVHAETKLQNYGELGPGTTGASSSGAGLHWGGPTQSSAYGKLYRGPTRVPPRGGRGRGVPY

Row | pIC50 | Compound
1 | 6.26 | CN1CC(C2C=NN3C(NCc4nc5cc(Cl)c(Cl)cc5[nH]4)=NC(N4CCOCC4)=NC23)C=N1 (configuration not stated) [US20250042903, Compound 1]
2 | 6.58 | FC(F)N1CC(C2C=NN3C(NCc4nc5cc(Cl)c(Cl)cc5[nH]4)=NC(N4CCOCC4)=NC23)C=N1 (configuration not stated) [US20250042903, Compound 2]
